Assay results taken from patent US20110082204A1, “N-alkylcarbonyl-amino acid ester and N-alkylcarbonyl-amino lactone compounds and their use” (priority 2006, published 2011).

Tests used:
philtrum skin = assay: Cooling sensation after ointment applied to philtrum skin; type: in vivo, human; conditions: for duration of cooling (FIG. 1): 40 to 70 mg of 1% wt/vol (10 mg/ml) ointment on skin above the upper lips; for Duration of cooling, Philtrum Skin: 5 mg/ml in Aquaphor ointment on philtrum skin
Excerpt: A reliable place for topical application is the skin above the upper lip (above the vermilion border of the lips), on the philtrum, lateral to the philtrum until the nasolabial folds, and on the lower nostrils (subnasale). This part of the face is known to be densely innervated with cold receptors, second only to the surfaces of the eyeball and anogenitalia.
The intensity of the subjective skin sensation is rated as 0, 1, 2 or 3 with: 0 as no change; 1 as slight coolness, cold, or tingling; 2 as clear-cut signal of coolness, cold, or tingling; and 3 as robust cooling or cold. The intervals for recording sensations are 5 to 10 minutes, until two successive zeroes are obtained. The results (shown in FIG. 1) are averaged values of 4 to 6 separate trials in the same individual. The data are plotted using SigmaPlot® (Systat Software, Point Richmond Calif.) and a smoothing function with a negative exponential was used for analysis and statistical fit of the results. Confirmatory trials of cooling action of the long-acting NACE compounds were obtained in 2 to 4 individuals but not quantified for some because of the large number of chemicals that were evaluated
(§1) The onset of drug action is taken as the time to reach 2 units of coolness intensity, and offset of drug action is the time when coolness intensity drops below 2, after previously surpassing 2 units. The duration of cooling action is defined as the offset time minus the onset time. […] The quality of the sensation is noted, for example, as pure refreshing coolness, or if the sensation is accompanied by irritation (stinging or burning). The quality of the sensation is not rated for intensity.
For bioassay on the skin, approximately 30 mg was stirred and dissolved in 3 g of warm liquid Aquaphor® ointment to a yield 5 to 10 mg/ml (0.5% to 1.0 wt/vol) ointment. After cooling, 40 to 70 mg of the solid ointment was placed on the tip of a plastic stick and applied to the skin above the upper lip, on the philtrum, and lateral to the philtrum, up to the nasolabial folds, of test subjects and the onset and duration of cooling sensations noted.
The intensity of the subjective skin sensation was rated as 0, 1, 2 or 3 with: 0 as no change; 1 as slight coolness, cold, or tingling; 2 as clear signal of coolness, cold, or tingling; and 3 as robust cooling or cold. The intervals for recording sensations were 5 to 10 minutes, until two successive zeroes were obtained. The results (shown in FIG. 1) are averaged values of 4 to 6 separate trials in the same individual. The data are plotted using SigmaPlot® (Systat Software, Point Richmond, Calif., USA) and a smoothing function with a negative exponential was used for analysis and statistical fit of the results.
as §1, with “was” for “is”, “was also noted: such” for “is noted, for example,”
For the results in FIG. 1, the test compounds were singly applied to the skin above the upper lips at a 40 to 70 mg dose of a 1% wt/vol (10 mg/ml) ointment. Subsequently, for the results shown in Table 3, the test dose on the philtrum was reduced to a 0.5% wt/vol (5 mg/ml) ointment. The reason for choosing a lower dose was to increase the number of trials per individual and to have a reduced chance of substances accumulating in the skin.

eyelids/ocular surface = assay: Cooling after wiping closed eyelids with a towelette; type: in vivo, human; conditions: for Duration of cooling, Eyelids/Ocular Surface: eye wipes, 1 mg/ml in 5%-95% v/v ethanol-distilled water
Experimental: A second method of testing was to take a towelette saturated with a test solution of the cooling agent and to wipe the towelette over the dosed eyelids. The presence or absence of cooling (or irritanty, if applicable) sensations was then recorded at 10 minute intervals until the cessation of coolness in two successive intervals.
(§2) For testing of cooling compounds delivered to the eyelids with a towelette, the following procedures were used in the experiments of Table 3 and in Study 5 and 6. Three ml of liquid suspension or solution in distilled water was added to a 0.4 g cotton rectangle (50 mm×60 mm) (CS-being, Daisan Cotton, Japan) and individually sealed with a vaccuum apparatus (Foodsaver®, Jarden Corp.). Samples were stored in the freezer or refrigerator and thawed to room temperature before use. Wiping with the cotton pad delivers 40 to 45 μl of liquid composition to the eyelids ([…] to 22 μl per eye). So, if the concentration of the test substance was 1 mg/ml, the dose delivered to both eyes is a total of ˜40 to […], or ˜20 μg per eye. This method allows a reliable delivery of test substances because the dissolved or suspended particles in solution are evenly dispersed on the cotton pad in an excess volume of liquid. The presence or absence of cooling sensations was noted as being present or absent at 5 to 10 min intervals until no coolness was noticeable in two successive test intervals. Only the duration of cooling on the ocular surface was recorded, without an attempt to quantify the intensity of the sensation.

[1] = system: dorsal surface of the tongue; assay: Tongue cooling threshold, impregnated filter paper (Watson et al.); type: in vivo, human; conditions: summary comparison
Experimental: Watson et al. (U.S. Pat. No. 4,178,459) tested the properties of N-substituted p-menthane carboxamides. However, the branched chain alkylesters such as the isopropyl analogs described here in the Gly and D-Ala configuration of Formula 1 were never synthesized by Watson et al. Bioactivity of the Watson et at compounds were tested by putting filter paper (1×1 cm), impregnated with a known amount of compound, onto the dorsal surface of the tongue of the volunteer test subject. After 30 seconds, the subject was required to report presence or absence of a cooling effect. […] The average threshold of (−)-menthol for 6 subjects was 0.25 μg, but there was a 100-fold variation in individual sensitivity. The potencies of coolness signals detected from the dorsal surface of the tongue are not correlated to skin sensations of coolness may be confounded by gustatory, olfactory, and other variables, as well as by dilution from saliva.

periorbital skin = assay: Ointment applied to periorbital skin: coolness, eye irritancy, alerting (Study 3); type: in vivo, human
Excerpt: The ointment was also applied to the periorbital skin (upper and lower eyelids and on skin adjacent to the lateral canthus) for tests of irritancy near the eyes, and the subject is asked if irritation is present or absent. The intensity of the eye sensation is not rated.
For tests of irritancy near the eyes in Study 3 and 4, the ointment was applied to the periorbital skin (upper and lower eyelids and on skin adjacent to the lateral canthus), and the subject asked if irritation is present or absent. The intensity of the eye sensation is not rated, but just noted as being present or absent
A 1% preparation of 2-isopropyl-5-methyl-cyclohexanecarbonyl D-alanine methyl ester in Aquaphor® ointment was applied bilaterally to the periorbital area of four individuals. […] This experiment was then repeated three days later in the evening with the same individuals whose occupations required daylong activities before a computer screen.

[2] = system: dorsal surface of the tongue; conditions: threshold amount producing cooling on tongue of human volunteers; values from Watson US 04178459; cited from earlier work
[3] = Log P of tested compounds; type: physicochemical
sleepiness and fatigue = assay: Study 4: eye wipes against sleepiness and fatigue; type: in vivo, human; conditions: for onset and intensity of awakening effect: eye wipes, compared with the other analogs
Experimental: as §2
Three high-powered business executives who regularly spent long hours at the negotiating tables or at meetings felt “burnt out” by their professional activities and frequently felt tired and sleepy-eyed in the social arena. They volunteered to try eye wipes containing 1.0 mg/ml of (R)-2-[((1R,2S,5R)-2-isopropyl-5-methyl-cyclohexanecarbonyl)-amino]-propionic acid isopropyl ester (D-Ala-OiPr, No. 1, in table 1) to see if the eye wipes will refresh and awaken their interest during meetings. […] They became alert and vigilant and more pro-active in their social milieu.

face = assay: Study 2: towelette used to wipe the face in hot weather; type: in vivo, human; conditions: for duration of pleasant cooling sensations: 10% propylene glycol/90% water
Experimental: 2-Isopropyl-5-methyl-cyclohexanecarbonyl D-alanine methyl ester was dissolved in warm 10% propylene-glycoV90% distilled water solution to give a concentration of either 0.1 or 0.5% wt/vol (1 or 5 mg/mL). Six to seven milliliters of these solutions were then applied with a pipette onto a paper napkin (Luncheon Napkins, Kirkland Signature brand from Costco, Inc.) The napkin was 1-ply with a 30.4×29.5 cm dimension. Each napkin was then hermetically sealed in a plastic envelope (Foodsaver by Tilia). On two separate occasions involving golfing trips to Los Angeles, Calif., USA, where air temperatures exceeded […] (90° F.), these towelettes were used to wipe the face. Pleasant cooling sensations were obtained that lasted for about 10 minute for the 0.1% concentration towelette and about 60 minutes for the 0.5% towelette.

allergic conjunctivitis = assay: Study 5: eye wipes in allergic conjunctivitis; type: in vivo, human
Experimental: as §2
A laboratory scientist suffered from seasonal allergic conjunctivitis. This condition was severely aggravated when […] started doing experiments with laboratory animals (rats and mice) and […] became sensitized to the associated allergens. The conjunctivitis was not relieved by oral or topical eye drop antihistamines and the subject was reluctant to consider the use of anti-inflammatory steroid ointments. Upon examination, their eyes were blood-shot and watery and they kept rubbing their eyelids with their fingers even though they knew this action may further aggravate the itch and discomfort. They volunteered to try eye wipes containing 1.0 mg/ml of (R)-2-[((1 R,2S,5R)-2-isopropyl-5-methyl-cyclohexanecarbonyl)-amino]-acetic isopropyl ester (Gly-OiPr, No. 2, in table 1). The relief of itch and discomfort was obtained within 5 minutes and lasted for at least four hours.

periorbital pain = assay: Study 6: eye wipes in persistent periorbital pain; type: in vivo, human; conditions: eye wipes 1.0 mg/ml, one patient, three occasions
Experimental: as §2
A person suffered from “dry eyes” or keratoconjunctivitis sicca which was managed by artificial tears and eye drops containing lubricants. […]

[4] = 1% in Aquaphor ointment, periorbital area, four individuals
[5] = eye wipes 1.0 mg/ml, one subject

## CC1CCC(C(C)C)C(O)C1 (single isomer, unassigned; (-)) [(−)-menthol, reference compound]
Philtrum skin
  duration of cooling (FIG. 1): 0.3 h
Philtrum skin; summary comparison
  Cooling on skin of face: yes
  “perfect” cooling experience: no
eyelids/ocular surface; 1 mg/ml
  Acts for >1 hour at 1 mg/ml: no
[1]
  Cooling on tongue: yes
Periorbital skin; summary comparison
  Eye Irritancy: yes
[2]
  Threshold tongue: 0.25 µg

## CCOC(=O)[C@@H](C)NC(=O)[C@@H]1C[C@H](C)CC[C@H]1C(C)C [D-Ala Et Ester, (R)-2-[((1R,2S,5R)-2-isopropyl-5-methyl-cyclohexanecarbonyl)-amino]-propionic acid ethyl ester]
Philtrum skin
  Duration of cooling, Philtrum Skin: 103 min
  duration of cooling (FIG. 1): 2.4 h
eyelids/ocular surface
  Duration of cooling, Eyelids/Ocular Surface: 180 min
[3]
  logP: 3.1
Sleepiness and fatigue
  onset and intensity of awakening effect: faster onset and more intense awakening effect

## COC(=O)[C@@H](C)NC(=O)[C@@H]1C[C@H](C)CC[C@H]1C(C)C [D-Ala Me Ester, (R)-2-[((1R,2S,5R)-2-isopropyl-5-methyl-cyclohexanecarbonyl)-amino]-propionic acid methyl ester]
Philtrum skin
  Duration of cooling, Philtrum Skin: 77 min
  duration of cooling (FIG. 1): 1.9 h
eyelids/ocular surface
  Duration of cooling, Eyelids/Ocular Surface: 120 min
[3]
  logP: 2.8
face; 0.1% wt/vol (1 mg/mL) towelette
  duration of pleasant cooling sensations: about 10 minute
face; 0.1 or 0.5% towelette
  eye irritation: No eye irritation was observed
face; 0.5% wt/vol (5 mg/mL) towelette
  duration of pleasant cooling sensations: about 60 minutes
Periorbital skin; [4]
  Onset of coolness on the skin: 1 min
  duration of alerting effect: about one
  duration of coolness on the skin (average): 30 min
Periorbital skin; ointment on periorbital area
  irritation of skin / eye surfaces: No irritation of the eye surfaces was noted
Sleepiness and fatigue
  onset and intensity of awakening effect: faster onset and more intense awakening effect

## CC(C)OC(=O)[C@@H](C)NC(=O)[C@@H]1C[C@H](C)CC[C@H]1C(C)C [D-Ala iPr Ester, (R)-2-[((1R,2S,5R)-2-isopropyl-5-methyl-cyclohexanecarbonyl)-amino]-propionic acid isopropyl ester]
Philtrum skin
  Duration of cooling, Philtrum Skin: 34 min
eyelids/ocular surface
  Duration of cooling, Eyelids/Ocular Surface: 360 min
[3]
  logP: 3.7
Sleepiness and fatigue; eye wipes 1.0 mg/ml, three executives
  effect on sleepiness and fatigue: the sense of sleepiness and fatigue was reduced for the next several hours

## CC(C)OC(=O)CNC(=O)[C@@H]1C[C@H](C)CC[C@H]1C(C)C [Gly iPr Ester, (R)-2-[((1R,2S,5R)-2-isopropyl-5-methyl-cyclohexanecarbonyl)-amino]-acetic acid isopropyl ester]
Philtrum skin
  Duration of cooling, Philtrum Skin: 27 min
eyelids/ocular surface
  Duration of cooling, Eyelids/Ocular Surface: 300 min
[3]
  logP: 3.3
Allergic conjunctivitis; [5]
  duration of relief of itch and discomfort: at least four
  time to relief of itch and discomfort: ≤ 5 min
Allergic conjunctivitis; wipes used as needed for three days
  over-all itchiness and redness: over-all itchiness and redness were reduced significantly
Periorbital pain
  relief of periorbital pain: immediate relief
